Among the data in patent publication US20250236611A1, “PYRAZOLE COMPOUNDS AND USES THEREOF” (ALCON INC., priority 2021, published 2025) are IC50 values, retold here.

What is called IC50 is the concentration needed to halve the response being measured. Low readings indicate greater potency, high ones weaker potency.

Molecules are shown by their SMILES.

Common to all, as to type: biochemical
Common to all, as to conditions: 10 nM JAK enzyme, 800 nM Abl peptide, room temperature 75 min

One assay has as its target JAK1 (Homo sapiens, UniProt P23458). In words: JAK assay (KINASE-GLO luminescent kinase assay), JAK1. The procedure: (§1) All compounds were initially prepared as 10 mM stocks in anhydrous dimethylsulfoxide (DMSO). A 20 μL aliquot of the 10 mM solutions was transferred to individual wells in column 1 of a 96-well polypropylene microtiter plate (Corning #3363) and diluted with DMSO to give a final compound concentration of 4 mM. Test compounds were then serially diluted 1:5 in DMSO for an 11-point concentration response and further diluted in the assay buffer bringing all compound concentrations to a final range of 100 μM to 10 pM in 2.5% DMSO. The assay was performed in white 96-well, flat-bottom, half-area, non-binding assay plate (Corning #3642) in assay buffer consisting of 20 mM HEPES (pH 7.5), 10 mM MgCl2*6H2O, 100 μM sodium orthovanadate, 0.05% CHAPS and 0.1% bovine serum albumin. A 10 μL aliquot of compound from each well of the intermediate dilution plate and 20 μL of a 2×JAK substrate/enzyme solution containing acceptor substrate (800 nM Abl peptide), JAK enzyme (10 nM JAK1, JAK2, JAK3, or TYK2), and 1,4-Dithiothreitol (DTT, 2 μM) were added to all wells. The reaction was initiated by the addition of 10 μL of 4× stock solution ATP (2 μM). Reactions were thoroughly mixed manually, covered and allowed to incubate at room temperature for 75 min. Protein kinase activity was quantitated using Promega's KINASE-GLO™ luminescent Kinase Assay Kit according to the manufacturer's directions. ATP concentrations remaining in Test wells following the termination of the enzymatic reaction were compared against control wells containing equivalent amounts of DMSO containing no inhibitor (CTRL). […] Percent of Control (POC) values were determined for each concentration of compound tested according to the equation:
(§2) [formula] • IC50 values were calculated using the following 4-parameter logistic curve-fitting algorithm:
(§3) [formula] • IC50 values were converted to Ki values using the Cheng-Prusoff Equation: […]
A general note: Kinase-Glo measures the ATP left after a reaction by luminescence.

The target in a further assay is JAK2 (Homo sapiens, UniProt O60674). The assay can be described thus: JAK assay (KINASE-GLO luminescent kinase assay), JAK2. The procedure: as §1, §2, §3
Sequence of JAK2 (O60674 whole entry): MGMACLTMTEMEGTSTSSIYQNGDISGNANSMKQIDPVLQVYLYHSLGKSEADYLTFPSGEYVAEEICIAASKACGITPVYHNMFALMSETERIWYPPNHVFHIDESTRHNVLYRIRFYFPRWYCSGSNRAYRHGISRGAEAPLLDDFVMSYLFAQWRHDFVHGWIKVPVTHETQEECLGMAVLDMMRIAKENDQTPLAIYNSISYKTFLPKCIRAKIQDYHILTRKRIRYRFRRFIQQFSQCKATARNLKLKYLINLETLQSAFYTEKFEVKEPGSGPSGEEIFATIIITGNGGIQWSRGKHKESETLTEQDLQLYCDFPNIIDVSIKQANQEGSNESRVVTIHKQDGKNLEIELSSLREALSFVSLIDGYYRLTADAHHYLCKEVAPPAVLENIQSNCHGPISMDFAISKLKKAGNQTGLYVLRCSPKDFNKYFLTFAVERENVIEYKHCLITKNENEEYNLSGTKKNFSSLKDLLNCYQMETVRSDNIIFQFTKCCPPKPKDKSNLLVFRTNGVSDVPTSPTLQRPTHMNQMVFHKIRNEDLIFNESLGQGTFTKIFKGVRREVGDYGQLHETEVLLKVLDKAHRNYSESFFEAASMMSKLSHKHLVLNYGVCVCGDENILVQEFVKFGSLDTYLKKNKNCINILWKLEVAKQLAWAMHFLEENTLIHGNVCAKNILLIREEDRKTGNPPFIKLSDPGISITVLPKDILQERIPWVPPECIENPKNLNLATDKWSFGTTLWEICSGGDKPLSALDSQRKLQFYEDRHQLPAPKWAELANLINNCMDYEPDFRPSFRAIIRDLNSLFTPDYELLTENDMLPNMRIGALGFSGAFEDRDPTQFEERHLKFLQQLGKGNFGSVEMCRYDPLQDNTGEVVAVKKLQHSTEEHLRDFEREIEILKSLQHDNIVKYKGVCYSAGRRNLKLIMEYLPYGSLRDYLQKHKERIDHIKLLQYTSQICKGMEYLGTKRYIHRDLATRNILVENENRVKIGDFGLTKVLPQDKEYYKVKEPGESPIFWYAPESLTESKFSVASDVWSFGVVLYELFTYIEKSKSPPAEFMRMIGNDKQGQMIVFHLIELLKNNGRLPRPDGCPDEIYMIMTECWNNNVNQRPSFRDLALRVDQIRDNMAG
Another assay concerns the target T1, JAK3 (Homo sapiens, UniProt P52333).
T1 sequence (P52333 1-1124): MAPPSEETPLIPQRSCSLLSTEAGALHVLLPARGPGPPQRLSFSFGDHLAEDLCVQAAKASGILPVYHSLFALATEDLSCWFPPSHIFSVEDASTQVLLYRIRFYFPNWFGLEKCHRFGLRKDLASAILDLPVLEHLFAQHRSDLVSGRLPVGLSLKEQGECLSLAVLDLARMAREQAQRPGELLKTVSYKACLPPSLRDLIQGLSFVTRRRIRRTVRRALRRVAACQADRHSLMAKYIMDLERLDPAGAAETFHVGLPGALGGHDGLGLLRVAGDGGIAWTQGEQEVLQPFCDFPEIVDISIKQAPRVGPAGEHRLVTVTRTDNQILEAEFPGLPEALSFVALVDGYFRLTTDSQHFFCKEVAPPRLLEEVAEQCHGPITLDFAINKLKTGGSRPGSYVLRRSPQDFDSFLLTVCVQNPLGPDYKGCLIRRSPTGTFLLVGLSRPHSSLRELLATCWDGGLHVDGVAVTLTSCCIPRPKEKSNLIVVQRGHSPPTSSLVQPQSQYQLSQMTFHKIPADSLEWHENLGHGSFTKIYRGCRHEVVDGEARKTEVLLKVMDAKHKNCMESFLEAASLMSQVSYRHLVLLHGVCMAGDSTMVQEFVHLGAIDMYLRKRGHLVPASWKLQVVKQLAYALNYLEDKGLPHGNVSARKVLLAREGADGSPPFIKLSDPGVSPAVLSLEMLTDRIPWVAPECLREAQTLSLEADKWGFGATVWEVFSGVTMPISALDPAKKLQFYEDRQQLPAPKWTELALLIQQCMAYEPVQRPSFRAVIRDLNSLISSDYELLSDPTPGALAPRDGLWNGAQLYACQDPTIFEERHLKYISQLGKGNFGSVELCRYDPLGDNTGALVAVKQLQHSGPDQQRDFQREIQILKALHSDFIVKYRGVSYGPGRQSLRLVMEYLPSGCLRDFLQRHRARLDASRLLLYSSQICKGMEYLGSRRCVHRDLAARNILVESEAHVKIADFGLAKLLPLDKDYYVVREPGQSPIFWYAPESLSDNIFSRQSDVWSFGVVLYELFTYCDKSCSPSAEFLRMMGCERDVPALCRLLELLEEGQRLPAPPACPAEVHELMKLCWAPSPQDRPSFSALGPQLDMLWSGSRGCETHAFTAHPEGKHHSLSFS
In words: JAK assay (KINASE-GLO luminescent kinase assay), JAK3. The procedure: as §1, §2, §3

Another assay has as its target TYK2 (Homo sapiens, UniProt P29597). The assay can be described thus: JAK assay (KINASE-GLO luminescent kinase assay), TYK2. The procedure: as §1, with “A 20 μL aliquot of the 10 mM solutions was transferred to individual wells in column 1 of a 96-well polypropylene microtiter plate (Corning #3363) and diluted with DMSO to give a final compound concentration of 4 mM.” left out
as §2, §3

Sequence of TYK2 (P29597 whole entry): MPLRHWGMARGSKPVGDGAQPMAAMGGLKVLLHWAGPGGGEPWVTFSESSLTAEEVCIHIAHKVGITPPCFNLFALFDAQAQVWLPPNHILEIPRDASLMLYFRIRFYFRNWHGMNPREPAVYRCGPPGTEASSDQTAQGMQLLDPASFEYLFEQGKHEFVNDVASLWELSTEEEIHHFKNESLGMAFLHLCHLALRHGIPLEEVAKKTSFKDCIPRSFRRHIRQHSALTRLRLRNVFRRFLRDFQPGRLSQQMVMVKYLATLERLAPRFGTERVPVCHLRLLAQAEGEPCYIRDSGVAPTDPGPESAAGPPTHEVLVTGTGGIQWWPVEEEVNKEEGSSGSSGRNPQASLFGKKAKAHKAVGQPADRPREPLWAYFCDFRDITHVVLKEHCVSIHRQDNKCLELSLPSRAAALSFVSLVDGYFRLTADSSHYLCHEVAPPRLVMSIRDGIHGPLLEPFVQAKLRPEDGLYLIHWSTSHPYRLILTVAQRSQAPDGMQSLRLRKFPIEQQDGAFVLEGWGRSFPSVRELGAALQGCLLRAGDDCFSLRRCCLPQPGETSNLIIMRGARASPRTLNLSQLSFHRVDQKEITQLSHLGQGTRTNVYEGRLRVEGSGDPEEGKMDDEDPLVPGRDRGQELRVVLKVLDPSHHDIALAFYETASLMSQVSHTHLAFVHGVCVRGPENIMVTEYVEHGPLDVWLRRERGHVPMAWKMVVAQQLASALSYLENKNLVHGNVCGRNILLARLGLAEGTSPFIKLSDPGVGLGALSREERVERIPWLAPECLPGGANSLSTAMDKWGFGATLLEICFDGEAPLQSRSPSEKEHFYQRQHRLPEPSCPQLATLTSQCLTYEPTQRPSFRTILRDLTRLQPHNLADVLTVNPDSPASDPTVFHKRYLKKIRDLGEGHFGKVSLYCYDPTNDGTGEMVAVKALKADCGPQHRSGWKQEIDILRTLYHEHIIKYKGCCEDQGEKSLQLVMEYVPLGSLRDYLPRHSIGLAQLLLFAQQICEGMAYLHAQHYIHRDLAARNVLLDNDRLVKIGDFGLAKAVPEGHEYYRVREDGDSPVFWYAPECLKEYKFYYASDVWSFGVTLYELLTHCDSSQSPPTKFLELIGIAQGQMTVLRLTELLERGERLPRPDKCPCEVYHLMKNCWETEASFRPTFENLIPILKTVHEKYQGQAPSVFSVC
Sequence of JAK1 (P23458 whole entry): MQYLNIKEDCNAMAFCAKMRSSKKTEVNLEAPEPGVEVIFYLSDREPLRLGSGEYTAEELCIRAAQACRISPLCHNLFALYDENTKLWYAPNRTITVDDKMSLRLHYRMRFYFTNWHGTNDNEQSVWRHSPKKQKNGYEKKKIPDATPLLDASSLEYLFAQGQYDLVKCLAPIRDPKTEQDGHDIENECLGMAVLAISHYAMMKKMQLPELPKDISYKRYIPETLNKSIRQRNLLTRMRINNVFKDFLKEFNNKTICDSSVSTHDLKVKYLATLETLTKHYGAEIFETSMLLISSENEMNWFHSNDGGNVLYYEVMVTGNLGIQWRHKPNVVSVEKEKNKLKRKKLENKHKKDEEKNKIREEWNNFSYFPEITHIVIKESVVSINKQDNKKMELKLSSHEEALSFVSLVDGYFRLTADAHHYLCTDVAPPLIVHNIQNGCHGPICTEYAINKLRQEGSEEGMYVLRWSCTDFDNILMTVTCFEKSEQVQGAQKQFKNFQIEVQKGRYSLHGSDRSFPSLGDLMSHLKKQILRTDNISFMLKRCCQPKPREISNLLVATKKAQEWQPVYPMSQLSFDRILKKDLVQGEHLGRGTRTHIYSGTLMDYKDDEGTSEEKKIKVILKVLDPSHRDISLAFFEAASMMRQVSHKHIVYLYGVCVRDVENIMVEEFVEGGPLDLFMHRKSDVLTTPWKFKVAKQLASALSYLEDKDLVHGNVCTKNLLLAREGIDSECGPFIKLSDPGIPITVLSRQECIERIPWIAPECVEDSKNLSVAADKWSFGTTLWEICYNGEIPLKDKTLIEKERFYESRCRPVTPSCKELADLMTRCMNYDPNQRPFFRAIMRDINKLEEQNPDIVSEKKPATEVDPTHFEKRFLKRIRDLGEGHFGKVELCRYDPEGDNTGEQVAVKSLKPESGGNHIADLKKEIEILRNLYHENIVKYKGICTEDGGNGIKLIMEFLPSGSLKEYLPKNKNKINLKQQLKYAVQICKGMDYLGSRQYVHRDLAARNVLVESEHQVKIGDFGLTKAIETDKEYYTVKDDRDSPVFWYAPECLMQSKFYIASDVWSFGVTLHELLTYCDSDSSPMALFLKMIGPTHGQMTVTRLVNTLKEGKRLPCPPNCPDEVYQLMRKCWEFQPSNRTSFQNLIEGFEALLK

On to `NCc1cccc(Nc2ncc(Cl)c(-c3cnn(CC4(CF)CC4)c3)n2)c1` [NCC1═CC═CC(═C1)NC2═NC(═C], for which the IC50 on JAK1 is below 100 nM; against JAK2, below 10 nM; on JAK3 it was below 10 nM; on TYK2, below 100 nM.
As to `Cc1cnc(NC(=O)Nc2ccc(Cl)cc2)nc1-c1cnn(CC2(CF)CC2)c1` [CC1═C(N═C(NC(═O)NC2═CC═C], the IC50 at JAK1, against JAK2, at JAK3 and on TYK2 was above 50000 nM throughout.
For `CS(=O)(=O)N(c1ncc(Cl)c(-c2cnn(CCC#N)c2)n1)S(C)(=O)=O` [C[S](═O)(═O)N(C1═NC(═C], the IC50 on JAK1 was above 50000 nM; at JAK2, below 100000 nM; at JAK3 it was above 50000 nM; at TYK2, above 50000 nM.
Regarding `Cc1cnc(Nc2ccc(C(=O)NCCN(C)C)cc2)nc1-c1cnn(CC2(CF)CC2)c1` [CN(C)CCNC(═O)C1═CC═C(NC2═NC], the IC50 at JAK1 was below 100 nM; at JAK2 it was below 10 nM; against JAK3, below 100 nM; at TYK2, below 10 nM.
In the case of `Cc1cc(Nc2ncc(C)c(-c3cnn(CC4(CF)CC4)c3)n2)ccc1N1CCN(C)CC1` [CN1CCN(CC1)C2═C(C)C═C(NC3═NC], the IC50 against JAK1 was below 100 nM; on JAK2, below 10 nM; against JAK3, below 10 nM; against TYK2, below 10 nM.
As for `N#CCCn1cc(-c2nc(Nc3cc(C(F)(F)F)no3)ncc2Cl)cn1` [FC(F)(F)C1═NOC(═C1)NC2═NC(═C], the IC50 is above 50000 nM on JAK1, below 1000 nM at JAK2, above 50000 nM against JAK3 and above 50000 nM at TYK2.
`NC(=O)CCn1cc(-c2nc(NC3CCNCC3(F)F)ncc2Cl)cn1` (stereo not shown) [NC(═O)CC[N]1C═C(C═N1)C2═C]: the IC50 is above 50000 nM at JAK1, below 100000 nM at JAK2, above 50000 nM against JAK3 and above 50000 nM at TYK2.
With `Cc1cnc(Nc2cnc(N3CCOCC3)nc2)nc1-c1cnn(CC2(CF)CC2)c1` [CC1═C(N═C(NC2═CN═C], the IC50 at JAK1 was below 1000 nM; against JAK2, below 10 nM; against JAK3, below 100 nM; at TYK2, below 1000 nM.
In the case of `FC(F)C1(Cn2cc(-c3nc(Nc4ccc5cnoc5c4)ncc3Cl)cn2)COC1` [FC(F)C1(COC1)C[N]2C═C(C═N2)C3═C], the IC50 was below 1000 nM at JAK1, below 10 nM at JAK2, below 100 nM at JAK3 and below 1000 nM against TYK2.
For the compound `Clc1cnc(NC23CC(C2)C3)nc1-c1cnn(Cc2cccs2)c1` [ClC1═C(N═C(NC23CC(C2)C3)N═C1)C4═C[N]], the IC50 is above 50000 nM on JAK1, above 50000 nM against JAK2, below 100000 nM against JAK3 and above 50000 nM on TYK2.
Turning to `COCc1cc(Nc2ncc(C)c(-c3cnn(CC4(CF)CC4)c3)n2)sn1` [COCC1═NSC(═C1)NC2═NC(═C], the IC50 on JAK1 was below 1000 nM; against JAK2 it was below 100 nM; against JAK3 it was below 1000 nM; on TYK2, below 1000 nM.
Regarding `Cc1cnc(Nc2ccc3c(c2)C(=O)N(C)C3=O)nc1-c1cnn(CC2(Cl)CC2)c1` [CN1C(═O)C2═C(C═C(NC3═NC(═C], the IC50 at JAK1 was below 1000 nM; on JAK2, below 10 nM; against JAK3 it was below 100 nM; against TYK2, below 100 nM.
Regarding `Cc1cnc(NCCN2CCCCC2)nc1-c1cnn(CCC#N)c1` [CC1═C(N═C(NCCN2CCCCC2)N═C1)C3═C[N]], the IC50 against JAK1, against JAK2, on JAK3 and against TYK2 was above 50000 nM in each case.
Turning to `N#CCCn1cc(-c2nc(NC3CCNCC3(F)F)ncc2Cl)cn1` (stereo not shown) [FC1(F)CNCCC1NC2═NC(═C], the IC50 at JAK1 was above 50000 nM; against JAK2, below 100000 nM; against JAK3, above 50000 nM; against TYK2, above 50000 nM.
Take `Cc1cnc(Nc2ccc(N3CC4(COC4)C3)cc2)nc1-c1cnn(CC2(CF)CC2)c1` [CC1═C(N═C(NC2═CC(═C(C═C2)N3CC4]: the IC50 is below 100 nM on JAK1, below 10 nM on JAK2, below 10 nM against JAK3 and below 10 nM against TYK2.
In the case of `Cc1cnc(Nc2cc(C(=O)O)ns2)nc1-c1cnn(CC2(CF)CC2)c1` [CC1═C(N═C(NC2═CC(═NS2)C], the IC50 is below 100 nM against JAK1, below 10 nM on JAK2, below 100 nM against JAK3 and below 100 nM at TYK2.
As for `Cc1cnc(Nc2ccc(CN3CCN(C)CC3)cc2)nc1-c1cnn(CC2(CF)CC2)c1` [CN1CCN(CC1)CC2═CC═C(NC3═NC], the IC50 against JAK1 is below 1000 nM; on JAK2 it was below 10 nM; on JAK3 it was below 100 nM; at TYK2, below 100 nM.
`CC(C)(C)OC(=O)N1CC(C#N)(Cn2cc(-c3nc(Nc4ccc(C(N)=O)cc4)ncc3Cl)cn2)C1` [CC(C)(C)OC(═O)N1CC(C1)(C[N]2C═C]: the IC50 was below 100 nM against JAK1, below 10 nM on JAK2, below 100 nM against JAK3 and below 100 nM against TYK2.
Turning to `Cc1cnc(Nc2cn(C)nn2)nc1-c1cnn(CC2(CF)CC2)c1` [C[N]1C═C(NC2═NC(═C(C)C═N2)C3═C[N]], the IC50 against JAK1 is below 1000 nM; against JAK2, below 100 nM; against JAK3 it was below 1000 nM; at TYK2 it was below 1000 nM.
`OCC(O)c1cccc(Nc2ncc(Cl)c(-c3cnn(CC4(CF)CC4)c3)n2)c1` (stereo not shown) [OCC(O)C1═CC═CC(═C1)NC2═NC(═C]: the IC50 at JAK1, against JAK2, at JAK3 and at TYK2 was below 10 nM in each case.
As to `Cc1cnc(Nc2cccc(CNC(=O)CN(C)C)c2)nc1-c1cnn(CC2(CF)CC2)c1` [CN(C)CC(═O)NCC1═CC═CC(═C1)NC2═NC], the IC50 is below 100 nM on JAK1, below 10 nM on JAK2, below 10 nM at JAK3 and below 100 nM against TYK2.
`N#CCCn1cc(-c2nc(Nc3ccc(N4CCOCC4)cc3F)ncc2Cl)cn1` [FC1═CC(═CC═C1NC2═NC(═C]: the IC50 on JAK1 was below 1000 nM; against JAK2 it was below 10 nM; against JAK3, below 100 nM; on TYK2, below 100 nM.
